From patent publication US20210205236A1, “THERAPEUTIC COMBINATIONS OF BOSWELLIA EXTRACT AND CANNABINOIDS” (priority 2018, published 2021)
Read-outs that look alike come from different tables or passages of the source.

What was measured:
[1] = biological target: T1, CB1 receptor (Homo sapiens, UniProt P21554); experiment: cell-based; format: cell-based; settings: for activity at 5 µM / activity at 10 µM / activity at 25 µM / activity at 50 µM / activity at 100 µM: CP55940-induced activity = 100%
T1 construct: expressed in transfected cells
T1 sequence (P21554 whole entry): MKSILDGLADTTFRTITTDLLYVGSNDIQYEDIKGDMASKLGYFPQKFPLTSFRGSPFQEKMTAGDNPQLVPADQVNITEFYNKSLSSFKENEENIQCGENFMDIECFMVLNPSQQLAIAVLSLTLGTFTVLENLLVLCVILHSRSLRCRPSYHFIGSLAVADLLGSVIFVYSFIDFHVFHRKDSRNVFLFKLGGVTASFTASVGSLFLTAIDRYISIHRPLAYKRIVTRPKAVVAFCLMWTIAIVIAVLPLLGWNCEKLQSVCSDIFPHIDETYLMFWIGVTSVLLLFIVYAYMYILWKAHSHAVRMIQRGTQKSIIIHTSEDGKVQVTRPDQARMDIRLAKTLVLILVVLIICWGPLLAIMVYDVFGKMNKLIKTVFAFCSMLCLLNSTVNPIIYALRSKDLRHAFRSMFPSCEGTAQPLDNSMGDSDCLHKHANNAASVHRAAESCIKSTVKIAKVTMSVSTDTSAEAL

[2] = biological target: T1, CB1 receptor; format: cell-based
[3] = AKBA 5 μM, alone or + THCA 10 μM, CBD 1 μM or THC 10 μM, Table 3 data re-expressed as fold change
[4] = AKBA 10 μM, alone or + THCA 10 μM, CBD 1 μM or THC 10 μM, Table 3 data re-expressed as fold change
[5] = AKBA 25 μM, alone or + THCA 10 μM, CBD 1 μM or THC 10 μM, Table 3 data re-expressed as fold change
[6] = AKBA 50 μM, alone or + THCA 10 μM, CBD 1 μM or THC 10 μM, Table 3 data re-expressed as fold change
[7] = AKBA 100 μM, alone or + THCA 10 μM, CBD 1 μM or THC 10 μM, Table 3 data re-expressed as fold change
[8] = AKBA 5 μM, alone or + THCA 10 μM or + THC 10 μM
[9] = AKBA 10 μM, alone or + THCA 10 μM or + THC 10 μM
[10] = AKBA 25 μM, alone or + THCA 10 μM or + THC 10 μM
[11] = AKBA 50 μM, alone or + THCA 10 μM or + THC 10 μM
[12] = AKBA 100 μM, alone or + THCA 10 μM or + THC 10 μM

CC(=O)O[C@@H]1CC[C@@]2(C)[C@@H](CC[C@]3(C)[C@@H]2C(=O)C=C2[C@@H]4[C@@H](C)[C@H](C)CC[C@]4(C)CC[C@]23C)[C@@]1(C)C(=O)O [AKBA, 3-O-acetyl-11-ketobeta-boswellic acid]
EC50 [1]: 51.7 ± 13.6 µM | Positive allosteric CB1R effect on CP-55940 activity [1]: strong positive allosteric CB1R effect | Conclusions: Is CB1R antagonist effect observed? ([1]; AKBA 5 μM, alone or + THCA 10 μM, CBD 1 μM or THC 10 μM, % of activity data): Negative (Only treatments that the mean of three consecutive independent experiments show a positive result (CB1R activity ≤ 50%) are considered antagonists of CB1R activity) | activity at 5 µM ([1]; AKBA 5 μM, alone or + THCA 10 μM, CBD 1 μM or THC 10 μM, read-out: Experiment 1 % of activity): 130% | activity at 5 µM ([1]; AKBA 5 μM, alone or + THCA 10 μM, CBD 1 μM or THC 10 μM, read-out: Experiment 2 % of activity): 123% | activity at 5 µM ([1]; AKBA 5 μM, alone or + THCA 10 μM, CBD 1 μM or THC 10 μM, read-out: Experiment 3 % of activity): 103% | Experiment 1 Fold change [1, 3]: 3.2 Fold change | Experiment 2 Fold change [1, 3]: 3.1 Fold change | Experiment 3 Fold change [1, 3]: 2.6 Fold change | Conclusions: Is CB1R antagonist effect observed? ([1]; AKBA 5 μM, alone or + THCA 10 μM, CBD 1 μM or THC 10 μM, positive allosteric activity, fold change data): Negative (Only treatments that the mean of three consecutive independent experiments show a positive result (CB1R activity ≥ 4-fold change) are considered positive CB1R allosteric agonists) | Conclusions: Is CB1R antagonist effect observed? ([1]; AKBA 10 μM, alone or + THCA 10 μM, CBD 1 μM or THC 10 μM, % of activity data): Negative (Only treatments that the mean of three consecutive independent experiments show a positive result (CB1R activity ≤ 50%) are considered antagonists of CB1R activity) | activity at 10 µM ([1]; AKBA 10 μM, alone or + THCA 10 μM, CBD 1 μM or THC 10 μM, read-out: Experiment 1 % of activity): 136% | activity at 10 µM ([1]; AKBA 10 μM, alone or + THCA 10 μM, CBD 1 μM or THC 10 μM, read-out: Experiment 2 % of activity): 114% | activity at 10 µM ([1]; AKBA 10 μM, alone or + THCA 10 μM, CBD 1 μM or THC 10 μM, read-out: Experiment 3 % of activity): 96.4% | Experiment 1 Fold change [1, 4]: 3.4 Fold change | Experiment 2 Fold change [1, 4]: 2.8 Fold change | Experiment 3 Fold change [1, 4]: 2.4 Fold change | Conclusions: Is CB1R antagonist effect observed? ([1]; AKBA 10 μM, alone or + THCA 10 μM, CBD 1 μM or THC 10 μM, positive allosteric activity, fold change data): Negative (Only treatments that the mean of three consecutive independent experiments show a positive result (CB1R activity ≥ 4-fold change) are considered positive CB1R allosteric agonists) | Conclusions: Is CB1R antagonist effect observed? ([1]; AKBA 25 μM, alone or + THCA 10 μM, CBD 1 μM or THC 10 μM, % of activity data): Allosterism (increase of the CB1R activity percentage (>150%) induced by CP55940) | activity at 25 µM ([1]; AKBA 25 μM, alone or + THCA 10 μM, CBD 1 μM or THC 10 μM, read-out: Experiment 1 % of activity): 203% | activity at 25 µM ([1]; AKBA 25 μM, alone or + THCA 10 μM, CBD 1 μM or THC 10 μM, read-out: Experiment 2 % of activity): 158% | activity at 25 µM ([1]; AKBA 25 μM, alone or + THCA 10 μM, CBD 1 μM or THC 10 μM, read-out: Experiment 3 % of activity): 128% | Experiment 1 Fold change [1, 5]: 5.1 Fold change | Experiment 2 Fold change [1, 5]: 3.9 Fold change | Experiment 3 Fold change [1, 5]: 3.2 Fold change | Conclusions: Is CB1R antagonist effect observed? ([1]; AKBA 25 μM, alone or + THCA 10 μM, CBD 1 μM or THC 10 μM, positive allosteric activity, fold change data): Allosterism (An increase of the fold change ≥ 4-fold indicates CB1R positive allosteric agonistic activity) | Conclusions: Is CB1R antagonist effect observed? ([1]; AKBA 50 μM, alone or + THCA 10 μM, CBD 1 μM or THC 10 μM, % of activity data): Allosterism (increase of the CB1R activity percentage (>150%) induced by CP55940) | activity at 50 µM ([1]; AKBA 50 μM, alone or + THCA 10 μM, CBD 1 μM or THC 10 μM, read-out: Experiment 1 % of activity): 500% | activity at 50 µM ([1]; AKBA 50 μM, alone or + THCA 10 μM, CBD 1 μM or THC 10 μM, read-out: Experiment 2 % of activity): 537% | activity at 50 µM ([1]; AKBA 50 μM, alone or + THCA 10 μM, CBD 1 μM or THC 10 μM, read-out: Experiment 3 % of activity): 474% | Experiment 1 Fold change [1, 6]: 12.5 Fold change | Experiment 2 Fold change [1, 6]: 13.4 Fold change | Experiment 3 Fold change [1, 6]: 11.9 Fold change | Conclusions: Is CB1R antagonist effect observed? ([1]; AKBA 50 μM, alone or + THCA 10 μM, CBD 1 μM or THC 10 μM, positive allosteric activity, fold change data): Allosterism (An increase of the fold change ≥ 4-fold indicates CB1R positive allosteric agonistic activity) | Conclusions: Is CB1R antagonist effect observed? ([1]; AKBA 100 μM, alone or + THCA 10 μM, CBD 1 μM or THC 10 μM, % of activity data): Allosterism (increase of the CB1R activity percentage (>150%) induced by CP55940) | activity at 100 µM ([1]; AKBA 100 μM, alone or + THCA 10 μM, CBD 1 μM or THC 10 μM, read-out: Experiment 2 % of activity): 674% | activity at 100 µM ([1]; AKBA 100 μM, alone or + THCA 10 μM, CBD 1 μM or THC 10 μM, read-out: Experiment 3 % of activity): 485% | Experiment 1 Fold change [1, 7]: 25.6 Fold change | Experiment 2 Fold change [1, 7]: 16.8 Fold change | Experiment 3 Fold change [1, 7]: 12.1 Fold change | Conclusions: Is CB1R antagonist effect observed? ([1]; AKBA 100 μM, alone or + THCA 10 μM, CBD 1 μM or THC 10 μM, positive allosteric activity, fold change data): Allosterism (An increase of the fold change ≥ 4-fold indicates CB1R positive allosteric agonistic activity) | CB1R antagonistic effect ([1]; AKBA 5-100 μM, CP55940-stimulated cells): did not show an antagonistic effect | Conclusions: Is CB1R agonist effect observed? [2, 8]: Negative (Only treatments that the mean of three consecutive independent experiments shows a positive result: CB1R activity ≥ 2.5-fold increase or ≥ 4-fold increase are considered CB1R agonists or CB1R positive allosteric modulators) | Experiment 1 Fold change [2, 8]: 0.8 Fold change | Experiment 2 Fold change [2, 8]: 0.8 Fold change | Experiment 3 Fold change [2, 8]: 1.1 Fold change | Conclusions: Is CB1R agonist effect observed? [2, 9]: Negative (Only treatments that the mean of three consecutive independent experiments shows a positive result: CB1R activity ≥ 2.5-fold increase or ≥ 4-fold increase are considered CB1R agonists or CB1R positive allosteric modulators) | Experiment 1 Fold change [2, 9]: 1.0 Fold change | Experiment 2 Fold change [2, 9]: 1.3 Fold change | Experiment 3 Fold change [2, 9]: 0.9 Fold change | Experiment 1 Fold change [2, 10]: 1.0 Fold change | Experiment 2 Fold change [2, 10]: 1.1 Fold change | Experiment 3 Fold change [2, 10]: 0.8 Fold change | Conclusions: Is CB1R agonist effect observed? ([2]; AKBA 25 μM, alone or + THCA 10 μM or + THC 10 μM, cell 'Positive' wraps to 'Positive synergy'): Negative (Only treatments that the mean of three consecutive independent experiments shows a positive result: CB1R activity ≥ 2.5-fold increase or ≥ 4-fold increase are considered CB1R agonists or CB1R positive allosteric modulators) | Experiment 1 Fold change [2, 11]: 1.3 Fold change | Experiment 2 Fold change [2, 11]: 1.3 Fold change | Experiment 3 Fold change [2, 11]: 0.7 Fold change | Conclusions: Is CB1R agonist effect observed? ([2]; AKBA 50 μM, alone or + THCA 10 μM or + THC 10 μM, cell 'Positive' wraps to 'Positive synergy'): Negative (Only treatments that the mean of three consecutive independent experiments shows a positive result: CB1R activity ≥ 2.5-fold increase or ≥ 4-fold increase are considered CB1R agonists or CB1R positive allosteric modulators) | Experiment 1 Fold change [2, 12]: 2.5 Fold change | Experiment 2 Fold change [2, 12]: 1.1 Fold change | Experiment 3 Fold change [2, 12]: 0.7 Fold change | Conclusions: Is CB1R agonist effect observed? ([2]; AKBA 100 μM, alone or + THCA 10 μM or + THC 10 μM, cell 'Positive' wraps to 'Positive synergy'): Negative (Only treatments that the mean of three consecutive independent experiments shows a positive result: CB1R activity ≥ 2.5-fold increase or ≥ 4-fold increase are considered CB1R agonists or CB1R positive allosteric modulators) | CB1R agonistic activity ([2]; AKBA 5-100 μM alone or + 10 μM THCA, any tested concentration, THC alone): did not show CB1R agonistic activity

CCCCCCC(C)(C)c1ccc([C@@H]2C[C@H](O)CC[C@H]2CCCO)c(O)c1 [CP, CP-55940, reference compound]
Experiment 1 Fold change [1]: 2.5 Fold change | Experiment 2 Fold change [1]: 2.5 Fold change | Experiment 3 Fold change [1]: 2.5 Fold change | activity at […] ([1]; read-out: Experiment 1 % of activity): 100% | activity at […] ([1]; read-out: Experiment 2 % of activity): 100% | activity at […] ([1]; read-out: Experiment 3 % of activity): 100% | Experiment 1 Fold change [2]: 2.5 Fold change | Experiment 2 Fold change [2]: 2.5 Fold change | Experiment 3 Fold change [2]: 2.5 Fold change
